Reference: patent publication US5641861A, “μopioid receptor ligands: agonists and antagonists” (Torrey Pines Institute For Molecular Studies, priority 1995, dated 1997)
Where no end group is shown, it is not given here. [ ]: non-standard residue; d: D form.

Columns and labels:
[1] = tested on: guinea-pig ileum; settings: inhibition of electrically stimulated contraction; read-out: GPI IC50
Description: The GPI assay (Kosterlitz et al., Br. J. Pharam. 39:398-418 (1970), which is incorporated herein by reference), is one of the most widely used assays for the determination of opioid activities in vitro. The assay is based on the ability of opioid agonists to inhibit electrically stimulated contraction in tissue. GPI is not a "clean" assay insofar as the ileum preparation contains both μ and κ receptors. However, μ receptor mediated-effects in the GPI can be distinguished from κ receptor mediated effects by determining Ke values for naloxone as the antagonist (μ effects: Ke ~1-3 nM); κ effects: Ke ~20-30 nM) or by using specific μ or κ antagonists.
The guinea pigs were killed by decapitation. […] Isometric contractions were measured via strain gauge force transducers and recorded on stripchart recorders.
In all bioassays, a dose-response curve with a reference compound (e.g., [D-Ala^2, Leu^5 ]enkephelinamide or U50,488) is used in each preparation. […] Ke values for naloxone or other antagonists are determined from the ratio of IC50 values (DR) obtained with the peptide under investigation in the presence and absence of a fixed concentration of the antagonist, using the formula Ke =a/(DR-1) ("a"=fixed concentration). A log dose-response curve is obtained with [Leu^5 ]enkephalin for each ileum and vas deferens preparation and the IC50 value is determined. […]

[2] = tested on: mouse vas deferens; test: Mouse vas deferens (MVD) bioassay; settings: inhibition of electrically stimulated contraction
Text: The mouse vas deferens (MVD) bioassay was also used to determine whether a peptide is an opioid agonist or an opiod antagonist. Again, such information is not available from the radioreceptor binding assay results.
The MVD assay (Henderson et al., Br. J. Pharma. 12:119-127 (1957), which is incorporated herein by reference) is another one of the most widely used assays for the determination of opioid activities in vitro. This assay, like the GPI assay, is based on the ability of opioid agonists to inhibit electrically stimulated contractions in tissue. The MVD assay is also not "clean" in that, in addition to the predominant δ receptor, the μ and κ receptors are also present. […]
Mouse vasa deferentia were dissected and placed in Krebs solution. The responses of the longitudinal muscle were recorded under a basal tension of 0.5 g and excited by pulses of 1 millisecond duration.
In all bioassays, a dose-response curve with a reference compound (e.g., [D-Ala^2, Leu^5 ]enkephelinamide or U50,488) is used in each preparation. […] Potencies of new compounds to be tested are determined relative to that of the reference compound, and their IC50 values are normalized based on an average IC50 value which has been obtained for the reference compound by performance of many determinations with a large number of preparations. […]

[3] = target: T1, μ receptor (Homo sapiens, UniProt P35372); test: Adenylyl cyclase assay, SH-SY5Y neuroblastoma cell membranes; assay type: biochemical; settings: AGONISTS section; cyclic AMP level, agonist alone at 100 μM
T1 construct: An adenylyl cyclase assay using human SH-SY5Y neuroblastoma cell line membranes; endogenous in cells; host or cells: human SH-SY5Y neuroblastoma cells, retinoic-acid differentiated; membranes
T1 sequence (P35372 whole entry): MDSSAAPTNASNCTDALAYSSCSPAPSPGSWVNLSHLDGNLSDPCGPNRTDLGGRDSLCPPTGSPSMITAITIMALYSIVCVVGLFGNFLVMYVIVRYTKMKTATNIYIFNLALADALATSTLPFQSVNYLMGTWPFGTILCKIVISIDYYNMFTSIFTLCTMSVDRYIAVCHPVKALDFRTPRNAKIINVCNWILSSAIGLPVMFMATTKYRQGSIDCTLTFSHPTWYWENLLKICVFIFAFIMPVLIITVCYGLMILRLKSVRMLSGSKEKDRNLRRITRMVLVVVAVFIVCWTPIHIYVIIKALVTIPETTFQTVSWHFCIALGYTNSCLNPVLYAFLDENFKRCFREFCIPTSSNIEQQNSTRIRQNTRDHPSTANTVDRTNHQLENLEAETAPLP

[4] = target: T2, δ receptors (Rattus norvegicus, UniProt P33533); test: Radioreceptor assay selective for δ receptors ([3H]-naltrindole); assay type: binding; settings: ratio of IC50 values
T2 construct: Radioreceptor assays selective for δ receptors were performed using rat brain homogenates; tissue Harlan Bioproducts for Science; host or cells: rat brain crude membrane homogenate
T2 sequence (P33533 whole entry): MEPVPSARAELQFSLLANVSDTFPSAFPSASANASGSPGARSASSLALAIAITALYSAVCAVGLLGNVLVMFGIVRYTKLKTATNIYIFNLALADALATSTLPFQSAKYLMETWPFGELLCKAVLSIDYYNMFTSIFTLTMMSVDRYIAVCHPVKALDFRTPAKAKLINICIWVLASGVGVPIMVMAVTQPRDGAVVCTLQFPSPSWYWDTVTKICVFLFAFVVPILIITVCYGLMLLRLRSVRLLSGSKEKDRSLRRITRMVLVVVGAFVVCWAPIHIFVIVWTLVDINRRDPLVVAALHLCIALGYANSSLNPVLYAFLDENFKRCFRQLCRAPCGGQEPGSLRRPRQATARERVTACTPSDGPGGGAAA
Description: Radioreceptor assays selective for δ receptors were performed using rat brain homogenates as above and [^3 H]-naltrindole (0.5 nM, specific activity 34.7 Ci/mmol) as radioligand in Tris buffer containing 100 μM phenylmethylsulfonyl fluoride (PMSF), 5 mMMgCl2 and 1 mg/ml bovine serum albumin (BSA), pH 7.4. Samples were incubated for 2.5 hr. Standard curves were prepared using 0.10-3200 nM [^3 H]-D-Pen2, Pen5 ]-enkephalin ([^3 H]-DPDPE).

[5] = target: T3, κ receptors (Cavia porcellus, UniProt P41144); test: Radioreceptor assay selective for κ receptors ([3H]-U69,593); assay type: binding, guinea pig; settings: ratio of IC50 values
T3 construct: tissue homogenates prepared from guinea pig brains (cortex and cerebellum); tissue Harlan Bioproducts for Science; host or cells: guinea pig brain (cortex and cerebellum) homogenate
T3 sequence (P41144 whole entry): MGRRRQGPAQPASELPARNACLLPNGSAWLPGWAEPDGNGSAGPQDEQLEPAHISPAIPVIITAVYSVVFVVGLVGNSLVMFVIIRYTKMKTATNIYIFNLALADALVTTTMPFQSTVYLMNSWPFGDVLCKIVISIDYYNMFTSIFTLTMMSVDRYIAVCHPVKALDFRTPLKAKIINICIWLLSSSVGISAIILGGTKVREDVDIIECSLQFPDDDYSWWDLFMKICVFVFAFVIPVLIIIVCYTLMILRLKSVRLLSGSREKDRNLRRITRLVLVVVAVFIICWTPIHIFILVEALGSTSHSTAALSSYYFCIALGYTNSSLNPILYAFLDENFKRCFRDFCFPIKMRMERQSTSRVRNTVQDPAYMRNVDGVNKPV
Description: Assays selective for κ receptors were carried out using [^3 H]-U69,593 (3 nM, specific activity 62 Ci/mmol) as the radioligand and tissue homogenates prepared from guinea pig brains (cortex and cerebellum) using Tris buffer containing 100 μM PMSF, 5 mMMgCl2 and 1 mg/ml BSA, pH 7.4. Sample tubes were incubated for 2.5 hr.

[6] = tested on: MU RECEPTOR; test: Agonist or antagonist activity by adenylyl cyclase assay or GPI assay (not specified which); settings: Table 13

Question: How did the IC50 [1] turn out when WWPKHK-NH2 [SEQ ID NO. 50] was run?
Answer: Its IC50 is 270 ± 19 nM.

Question: And the IC50 [2]?
Answer: Its IC50 is 45 ± 7 nM.

Question: How did the “% Basal Control” value [3] turn out when `C[C@@H](NC(=O)[C@@H](N)Cc1ccc(O)cc1)C(=O)NCC(=O)N(C)[C@@H](Cc1ccccc1)C(=O)NCCO` [DAMGO, [D-Ala^2, MePhe^4, Gly-ol^5]enkephalin] was run?
Answer: The value was 34 ± 6%.

Question: Which results are given for Trp--Trp--Pro--Arg--NH2 [SEQ ID NO. 69]?
Answer: δ/μ [4]: 1,740; κ/μ [5]: 2,060

Question: With “(D)Ile--(D)Met--(D)Thr--(D)Trp--Gly--(D)Pro--NH2 ([dI][dM][dT][dW]G[dP]-NH2; N-terminus assumed; SMILES CC[C@@H](C)[C@@H](N)C(=O)N[C@H](CCSC)C(=O)N[C@@H](C(=O)N[C@H](Cc1c[nH]c2ccccc12)C(=O)NCC(=O)N1CCC[C@@H]1C(N)=O)[C@H](C)O) [SEQ ID NO. 130]” as the compound, how does the “AGONIST OR ANTAGONIST” value [6] read?
Answer: The value was “Agonist”.
